Legend:
[1] = tested on: Human immunodeficiency virus 1; experiment: Antiviral activity against HIV1 Rf infected in CEM cells assessed as inhibition of viral replication after 5 days; type: functional, organism-based; details: Human immunodeficiency virus 1, Rf, CCRF-CEM, 120 h
[2] = target: T1, Human immunodeficiency virus type 1 integrase (Human immunodeficiency virus 1, UniProt Q7ZJM1); experiment: Inhibition of HIV1 integrase 3' processing activity
[3] = target: T1, Human immunodeficiency virus type 1 integrase; experiment: Inhibition of HIV1 integrase 3' strand transfer activity
CCRF-CEM = experiment: Cytotoxicity against human CEM cells; type: functional
[4] = Cmax in rat at 5 mg/kg, po; type: ADME, organism-based; parameters: dose 5 mg/kg, route oral; details: in vivo
[5] = Half life in rat at 5 mg/kg, po; type: ADME, organism-based; parameters: dose 5 mg/kg, route oral; details: in vivo
[6] = Oral bioavailability in rat at 5 mg/kg; type: ADME, organism-based; details: in vivo
[7] = Cmax in rat at 2 mg/kg, iv; details: in vivo
[8] = Half life in rat at 2 mg/kg, iv; details: in vivo
[9] = Tmax in rat at 5 mg/kg, po and 2 mg/kg, iv; details: in vivo
[10] = Plasma clearance in rat at 5 mg/kg, po and 2 mg/kg, iv
Rattus norvegicus = experiment: Volume of distribution at steady state in rat at 5 mg/kg, po and 2 mg/kg, iv; details: in vivo

T1 sequence (Q7ZJM1 whole entry): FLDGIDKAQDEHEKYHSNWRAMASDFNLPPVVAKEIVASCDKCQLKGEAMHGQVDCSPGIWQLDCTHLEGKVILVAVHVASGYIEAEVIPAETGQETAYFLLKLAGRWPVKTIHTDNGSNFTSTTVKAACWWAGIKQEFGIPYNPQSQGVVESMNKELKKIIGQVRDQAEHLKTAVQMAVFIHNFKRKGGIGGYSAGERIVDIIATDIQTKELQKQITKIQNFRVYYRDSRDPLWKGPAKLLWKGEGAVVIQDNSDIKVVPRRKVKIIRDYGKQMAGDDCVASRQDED

Row | Structure (SMILES) | EC50 [1] [nM] | IC50 [2] [µM] | IC50 [3] [µM] | CC50 (CCRF-CEM) [µM] | further results
1 | COc1ccc2c(c1)C(=O)C(O)=C(C1=C(C3=C(O)C(=O)c4cc(OC)ccc4C3=O)C(=O)c3ccccc3C1=O)C2=O | > 20000 | 22.5 | 10 |  | 
2 | COc1ccc2c(c1)C(=O)C(C1=C(O)C(=O)c3c(ccc4c3C=CC(C)(C)O4)C1=O)=C(C1=C(O)C(=O)c3c(ccc4c3C=CC(C)(C)O4)C1=O)C2=O | 27 | 2.3 | 2.5 | 10 | 
3 | CC1(C)C=Cc2c(ccc3c2C(=O)C(O)=C(C2=C(C4=C(O)C(=O)c5c(ccc6c5C=CC(C)(C)O6)C4=O)C(=O)c4c(ccc5c4C=CC(C)(C)O5)C2=O)C3=O)O1 | 390 | 1.7 | 3 | > 20 | 
4 | CC1(C)C=Cc2c(ccc3c2C(=O)C(O)=C(C2=C(C4=C(O)C(=O)c5c(ccc6c5C=CC(C)(C)O6)C4=O)C(=O)N(Cc4ccccc4)C2=O)C3=O)O1 | > 20000 | 4.5 | 4 |  | 
5 | COc1cc2c(cc1OC)C(=O)C(C1=C(C3=C(O)C(=O)c4cc(OC)c(OC)cc4C3=O)C(=O)c3ccccc3C1=O)=C(O)C2=O | > 20000 | 62 | 12 |  | 
6 | CC1(C)C=Cc2c(ccc3c2C(=O)C(O)=C(C2=C(C4=C(O)C(=O)c5c(ccc6c5C=CC(C)(C)O6)C4=O)C(=O)c4c(ccc5c4CCC(C)(C)O5)C2=O)C3=O)O1 | 470 | 1.8 | 6 | > 20 | Cmax [4]: 3200 ng/mL; half-life [5]: 1300 min; bioavailability [6]: 2.6%; Cmax [7]: 50.2 µg/mL; half-life [8]: 2700 min; Tmax [9]: 7.5 h; clearance [10]: 0.00733 mL/min; Vdss (Rattus norvegicus): 27.7 mL
7 | COc1cc2c(cc1OC)C(=O)C(C1=C(C3=C(O)C(=O)c4cc(OC)c(OC)cc4C3=O)C(=O)c3cc(OC)c(OC)cc3C1=O)=C(O)C2=O |  | > 150 | 10 |  | 
8 | CC1(C)CCc2c(ccc3c2C(=O)C(O)=C(C2=C(C4=C(O)C(=O)c5c(ccc6c5CCC(C)(C)O6)C4=O)C(=O)c4c(ccc5c4CCC(C)(C)O5)C2=O)C3=O)O1 |  |  | 9 |  | 
9 | COc1cccc2c1C(=O)C(C1=C(C3=C(O)C(=O)c4cccc(OC)c4C3=O)C(=O)c3ccccc3C1=O)=C(O)C2=O | > 20000 |  | 13 |  | 
10 | CC1(C)C=Cc2c(ccc3c2C(=O)C(O)=C(C2=C(C4=C(O)C(=O)c5c(ccc6c5C=CC(C)(C)O6)C4=O)C(=O)c4ccccc4C2=O)C3=O)O1 | 29 | 2.5 | 2 | 10 | 
11 | CCCOc1ccc2c(c1)C(=O)C(C1=C(O)C(=O)c3c(ccc4c3C=CC(C)(C)O4)C1=O)=C(C1=C(O)C(=O)c3c(ccc4c3C=CC(C)(C)O4)C1=O)C2=O | 9 | 2.8 | 5 | 1 | 
12 | CC(C)Oc1ccc2c(c1)C(=O)C(C1=C(O)C(=O)c3c(ccc4c3C=CC(C)(C)O4)C1=O)=C(C1=C(O)C(=O)c3c(ccc4c3C=CC(C)(C)O4)C1=O)C2=O | 240 | 3 | > 100 | > 20 | 
13 | O=C1C(O)=C(C2=C(C3=C(O)C(=O)c4ccccc4C3=O)C(=O)c3ccccc3C2=O)C(=O)c2ccccc21 | 16000 | 56 | 13 | 48 | 
